Measurements as given in patent US6489331B1, “Remedies for diabetes” (Kyowa Hakko Kogyo Co., Ltd., priority 1998, dated 2002).
Structures can show the parent of a compound that is named as a salt. Where two headings read alike, the source gives them in different places.

Tests used:
MIN6 cell = assay: Insulin secretion enhancing action in cultured β-cell (MIN6); assay type: cell-based; details: in the presence of 14.5 mM glucose; drug concentration 1.0 μM
Method: Culture of the MIN6 cells and insulin secretion test utilizing the MIN6 cells were performed basically according to the methods described in literature (Ishihara et al., Diabetologia, vol. 36, pp.1139-1145, 1993). The effect of a compound on the insulin secretion in the presence of 14.5 mM glucose was determined by measuring insulin amounts in cell culture supernatants collected as follows. MIN6 cells cultured on a 24-well plate were washed twice by using 1 ml of Buffer A (119 mM sodium chloride, 4.74 mM potassium chloride, 2.54 mM calcium chloride, 1.19 mM magnesium sulfate, 1.19 mM potassium dihydrogenphosphate, 10 mM 2-[4-(2-hydroxyethyl)-1-piperazinyl]ethanesulfonic acid, 0.1% bovine serum albumin, pH 7.3) containing 2 mM glucose, and then were incubated in 1 ml of Buffer A containing 2 mM glucose at 37° C. for 45 minutes. After the incubation, the culture supernatant was changed to Buffer A (0.9 ml) containing a test compound at various concentrations and 2 mM glucose, and the cells were further incubated at 37° C. for 15 minutes. The MIN6 cells were stimulated with glucose by the addition of Buffer A (0.1 ml) containing 127 mM glucose to the culture (final glucose concentration: 14.5 mM). After the stimulation, the cells were further incubated at 37° C. for 45 minutes, and then the culture supernatant was collected.
Separately, the effect of a compound on the insulin secretion in the presence of 5 mM glucose was determined by measuring insulin amounts in cell culture supernatants collected as follows. MIN6 cells cultured on a 24-well plate were washed twice by using 1 ml of Buffer A containing 5 mM glucose, and then the culture supernatant was changed to Buffer A (0.9 ml) containing a test compound at various concentrations and 5 mM glucose. Then, the cells were incubated at 37° C. for 45 minutes (final glucose concentration: 5 mM), and the culture supernatant was collected.
After the culture supernatant was diluted with a phosphate buffer containing 1% bovine serum albumin, 0.1% Tween 20, 0.12% disodium ethylenediaminetetraacetate and 0.1% sodium azide, antibody-reactive insulin secreted in the culture supernatant was quantified by enzyme immunoassay or radio immunoassay. […] The results are indicated as averages (avg) for 3 to 4 samples with standard error values (se).

Wistar male rats [1] = details: iv; for Area of plasma insulin, test compound-administered group: after glucose-loading (10 mg/kg iv)
Method: Wistar male rats (body weight: about 250 g) starved for 18 hours were anesthetized by intraperitoneal administration of sodium pentobarbital (50 mg/kg), and fixed at the dorsal position. Cannulas were inserted into the right common carotid artery for blood collection and the left femoral vein for administration of drug and glucose, respectively. To these rats were intravenously administered 500 U/kg of heparin to prevent blood coagulation. After about 0.2 ml of blood was collected, a drug was intravenously administered. Two minutes after the administration of the drug, blood was collected, and then glucose (10 mg/kg) was immediately administered intravenously. Then, blood was collected every 20 seconds for 2 minutes. Insulin concentration in plasma obtained by centrifugation was measured by radioimmunoassay. From an insulin concentration which increased after the glucose-loading, its area was calculated and considered the amount of secreted insulin. The insulin level was indicated as the amount of rat insulin (ng/mL).

dd male mice = assay: Acute toxicity test (minimum lethal dose); assay type: in vivo; details: po, mortality after seven days
Method: A test compound was orally administered to dd male mice (body weight: 20±1 g, n=3). Mortality rate after seven days was measured to determine minimum lethal dose (MLD).

Wistar male rats [2] = assay: Hyperglycemia suppression action after glucose-loading; assay type: in vivo; details: 30 mg/kg, po
Method: These rats were used for the experiment after starvation for 18 hours. A test compound was orally administered 1 hour before oral administration of glucose (2 g/kg). Jugular venous blood was collected before the administration of test compound, before the glucose-loading, 5, 10, 15, 30, 45 and 60 minutes after the glucose-loading, and plasma glucose concentration was measured (enzymatic method). The insulin level was indicated as amount of rat insulin (ng/mL).

Row | Compound | Amount of secreted insulin (ng/ml) avg (MIN6 cell) | % Ratio based on control (area of plasma insulin) (Wistar male rats [1]; 1 mg/kg) | Area of plasma insulin, test compound-administered group (Wistar male rats [1]; 1 mg/kg) | further results
1 | CCCN1C(=O)N2CC(CCc3ccccc3)N=C2c2[nH]c(C3CCCC3)nc21 (stereo not drawn) [Compound 31, 2-cyclopentyl-7,8-dihydro-8-phenethyl-4-propyl-1H-imidazo[2,1-i]purin-5(4H)-one hydrochloride] | 220.5 ng/mL | 173 ± 16% | 9.00 ± 0.84 ng·s/mL | 
2 | CCCN1C(=O)N2CC(Cc3cccc(F)c3)N=C2c2[nH]c(C3CCCC3)nc21 (stereo not drawn) [Compound 19, 2-cyclopentyl-8-(3-fluorobenzyl)-7,8-dihydro-4-propyl-1H-imidazo[2,1-i]purin-5(4H)-one hydrochloride] | 223.8 ng/mL | 291 ± 42% | 13.41 ± 1.95 ng·s/mL | 
3 | CCCN1C(=O)N2CC(Cc3ccc(Br)cc3)N=C2c2[nH]c(C3CCCC3)nc21 (stereo not drawn) [Compound 23, 8-(4-bromobenzyl)-2-cyclopentyl-7,8-dihydro-4-propyl-1H-imidazo[2,1-i]purin-5(4H)-one hydrochloride] | 249.9 ng/mL | 228 ± 50% | 11.85 ± 2.58 ng·s/mL | 
4 | CCCN1C(=O)N2C[C@@H](Cc3ccccc3)N=C2c2[nH]c(C3CCCC3)nc21 [Compound 16, (R)-8-benzyl-2-cyclopentyl-7,8-dihydro-4-propyl-1H-imidazo[2,1-i]purin-5(4H)-one hydrochloride] | 229.5 ng/mL |  |  | minimum lethal dose (MLD) (dd male mice): not less than 300 mg/kg; Plasma glucose concentration (Wistar male rats [2]; 0 minute (before glucose-loading)): 102 ± 4.6 mg/dL; Plasma glucose concentration (Wistar male rats [2]; 5 minutes after glucose-loading): 147 ± 5.7 mg/dL; Plasma glucose concentration (Wistar male rats [2]; 10 minutes after glucose-loading): 183 ± 9.1 mg/dL; Plasma glucose concentration (Wistar male rats [2]; 15 minutes after glucose-loading): 186 ± 8.7 mg/dL; Plasma glucose concentration (Wistar male rats [2]; 30 minutes after glucose-loading): 167 ± 3.3 mg/dL; Plasma glucose concentration (Wistar male rats [2]; 45 minutes after glucose-loading): 165 ± 4.8 mg/dL; Plasma glucose concentration (Wistar male rats [2]; 60 minutes after glucose-loading): 178 ± 4.7 mg/dL; Plasma glucose concentration (Wistar male rats [2]; −1 minute): 114 ± 4.5 mg/dL; % Ratio based on control (area of plasma insulin) (Wistar male rats [1]; 3 mg/kg): 246 ± 19%; Area of plasma insulin, test compound-administered group (Wistar male rats [1]; 3 mg/kg): 17.28 ± 1.35 ng·s/mL
5 | CCCc1nc2c([nH]1)C1=N[C@H](Cc3ccccc3)CN1C(=O)N2CCC [Compound 35, (R)-8-benzyl-7,8-dihydro-2,4-dipropyl-1H-imidazo[2,1-i]purin-5(4H)-one hydrochloride] | 232.4 ng/mL | 178 ± 23% | 15.69 ± 2.04 ng·s/mL | 
